Biological target: T1, mouse TRPM3α2 (mTRPM3) ion channel (Mus musculus, UniProt J9SQF3)
T1 construct: expressed in transfected cells; host or cells: flip-in HEK293
Experiment: TRPM3 ion channel driven Ca2+ uptake, Fluo-4 AM assay, mTRPM3alpha2 overexpressing flip-in HEK293 cells stimulated with pregnenolone sulfate (50 μM)
Assay type: cell-based
Conditions: mTRPM3 overexpressing HEK293 cells stimulated with pregnenolone sulfate (50 μM), activity ranges A, B, C
Experimental: Monitoring the TRPM3 Ion Channel Driven Ca2+ Uptake.
In order to monitor the inhibition of the mouse TRPM3α2 (mTRPM3) ion channel by the compounds of the invention, a cellular system making use of an mTRPM3alpha2 or hTRPM3 overexpressing cell line (flip-in HEK293) was used. The TRPM3 channel was stimulated/opened with Pregnenolone sulfate (PS) (50 μM) which results in Ca^2+ influx.
For mTRPM3, the intracellular Ca^2+ was measured with a Calcium responsive dye, Fluor-4 AM ester (Invitrogen). Cells were cultured until a confluence of 80-90%, washed with Versene (Invitrogen) and detached from the surface by a short incubation with 0.05% Trypsin (Invitrogen). The trypsination process was stopped by the addition of complete cell culture medium (DMEM, glutamax, 10% FCS, NEAA, Pen-Strep). Cells were collected and resuspended in Krebs buffer without Calcium at RT.
Prior the cell seeding (±2000 cells/well into a black, 384 well plate (Greiner)) the diluted compound was added in the assay plate, together with the PS dissolved in Krebs buffer containing Calcium. […] Directly after cell addition the plates were read on an Envision fluorescence reader (Perkin Elmer) by an Excitation of 485 nm and emission at 535 nm.
Channel inhibition was calculated compared to a non-PS stimulated control versus a condition stimulated with PS (50 μM) with vehicle. The ability of the compounds of the invention to inhibit this activity was determined as: Percentage inhibition=[1−((RFU determined for sample with test compound present−RFU determined for sample with positive control inhibitor) divided by (RFU determined in the presence of vehicle−RFU determined for sample with positive control inhibitor))]*100.
The activities of the Example compounds cpd 001-262 tested are depicted in the table below. All tested compounds show an activity in the Fluo-4 AM assay. The activity ranges A, B and C refer to IC50 values in the Fluo-4 AM assay as follows: “A”: IC50<1 μM; “B”: 1 μM≤IC50≤20 μM and “C”: IC50>20 μM.

T1 sequence (J9SQF3 1-1709 isoform J9SQF3-12): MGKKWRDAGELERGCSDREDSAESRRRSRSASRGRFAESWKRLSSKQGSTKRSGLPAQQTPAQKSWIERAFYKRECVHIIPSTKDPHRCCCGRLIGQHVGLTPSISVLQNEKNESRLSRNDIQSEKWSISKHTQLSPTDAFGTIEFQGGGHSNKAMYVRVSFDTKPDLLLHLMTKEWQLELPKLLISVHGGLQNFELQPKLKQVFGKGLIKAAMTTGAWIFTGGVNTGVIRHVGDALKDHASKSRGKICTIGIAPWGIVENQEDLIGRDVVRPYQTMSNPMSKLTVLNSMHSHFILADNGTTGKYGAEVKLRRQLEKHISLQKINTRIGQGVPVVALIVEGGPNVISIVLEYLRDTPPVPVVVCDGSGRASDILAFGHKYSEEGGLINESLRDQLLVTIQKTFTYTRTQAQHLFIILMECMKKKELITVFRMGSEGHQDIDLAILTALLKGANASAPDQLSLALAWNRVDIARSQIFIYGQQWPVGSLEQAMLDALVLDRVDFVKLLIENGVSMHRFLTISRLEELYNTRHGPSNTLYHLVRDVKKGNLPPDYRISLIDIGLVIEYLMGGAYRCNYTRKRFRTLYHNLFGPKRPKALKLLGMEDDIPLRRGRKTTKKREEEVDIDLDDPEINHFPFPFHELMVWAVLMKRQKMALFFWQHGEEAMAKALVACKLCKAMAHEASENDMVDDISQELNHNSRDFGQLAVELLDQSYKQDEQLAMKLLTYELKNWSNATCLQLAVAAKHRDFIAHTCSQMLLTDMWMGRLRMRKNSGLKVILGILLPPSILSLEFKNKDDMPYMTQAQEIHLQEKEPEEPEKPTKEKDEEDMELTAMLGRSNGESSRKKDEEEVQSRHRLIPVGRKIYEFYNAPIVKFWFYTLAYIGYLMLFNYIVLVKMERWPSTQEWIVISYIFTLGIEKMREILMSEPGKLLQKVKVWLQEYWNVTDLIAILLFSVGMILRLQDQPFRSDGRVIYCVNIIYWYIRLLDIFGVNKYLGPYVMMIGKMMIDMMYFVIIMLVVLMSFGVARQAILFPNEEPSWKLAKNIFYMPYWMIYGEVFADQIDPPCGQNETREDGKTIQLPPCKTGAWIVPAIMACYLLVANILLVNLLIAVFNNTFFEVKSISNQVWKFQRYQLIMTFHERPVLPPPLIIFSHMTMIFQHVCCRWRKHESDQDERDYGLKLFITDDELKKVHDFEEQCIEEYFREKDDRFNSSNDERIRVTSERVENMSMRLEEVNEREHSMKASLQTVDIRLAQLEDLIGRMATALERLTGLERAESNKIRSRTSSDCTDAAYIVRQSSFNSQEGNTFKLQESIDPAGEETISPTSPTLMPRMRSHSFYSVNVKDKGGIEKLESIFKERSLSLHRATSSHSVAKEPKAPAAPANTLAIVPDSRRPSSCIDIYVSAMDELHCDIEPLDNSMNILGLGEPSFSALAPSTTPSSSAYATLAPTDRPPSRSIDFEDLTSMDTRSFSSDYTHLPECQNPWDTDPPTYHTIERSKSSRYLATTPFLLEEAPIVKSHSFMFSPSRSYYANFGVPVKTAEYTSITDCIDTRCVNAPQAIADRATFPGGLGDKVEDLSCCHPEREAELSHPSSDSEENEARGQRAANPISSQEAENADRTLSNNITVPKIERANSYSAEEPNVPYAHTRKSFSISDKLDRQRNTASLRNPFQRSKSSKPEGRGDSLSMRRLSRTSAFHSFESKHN

IC50	SMILES
< 1 µM	Cn1nc2ccc(OCc3cccnc3C(F)(F)F)cc2c1C(=O)NC1(CO)CCNC1=O (single isomer, unassigned) [Cpd 177 - En1]
> 20 µM	Cn1nccc1COc1ccc2nn(C)c(C(=O)NC3(CO)CC3)c2c1 [Cpd 067, N-[1-(hydroxymethyl)cyclopropyl]-2-methyl-5-[(1-methyl-1H-pyrazol-5-yl)methoxy]-2H-indazole-3-carboxamide]
1 to 20 µM	Cn1nccc1COc1ccc2nn(C)c(C(=O)NC3(C(N)=O)CCC3)c2c1 [Cpd 061, N-(1-carbamoylcyclobutyl)-2-methyl-5-[(1-methyl-1H-pyrazol-5-yl)methoxy]-2H-indazole-3-carboxamide]
1 to 20 µM	Cn1nc2ccc(OCc3ccccc3F)cc2c1C(=O)NC1(CO)CCOCC1 [Cpd 096, 5-[(2-fluorophenyl)methoxy]-N-[4-(hydroxymethyl)oxan-4-yl]-2-methyl-2H-indazole-3-carboxamide]
1 to 20 µM	Cn1nc2ccc(OCc3ccccc3F)cc2c1C(=O)NC1(CO)CCNC1=O (single isomer, unassigned) [Cpd 171 -En2]
< 1 µM	Cn1nc2ccc(OCc3ccccn3)cc2c1C(=O)NC1CNCC1C(F)(F)F (single isomer, unassigned) [Cpd 246 - En2]
1 to 20 µM	Cn1nc2ccc(OCc3cccnc3C(F)(F)F)cc2c1C(=O)NC1(CO)CCC1 [Cpd 028, N-[1-(hydroxymethyl)cyclobutyl]-2-methyl-5-{[2-(trifluoromethyl)pyridin-3-yl]methoxy}-2H-indazole-3-carboxamide]
1 to 20 µM	Cn1nc2ccc(OCc3ccccc3F)cc2c1C(=O)NC1(C(N)=O)CCOC1 (single isomer, unassigned) [Cpd 166 - En1]
1 to 20 µM	CC(=O)C(C)(CO)NC(=O)c1c2cc(OCc3ccccn3)ccc2nn1C (single isomer, unassigned) [Cpd 232 - En1]
1 to 20 µM	CN(C)C(=O)C1(NC(=O)c2c3cc(OCc4cccnc4C(F)(F)F)ccc3nn2C)CCOC1 (single isomer, unassigned) [Cpd 186 - En1]
< 1 µM	Cn1nc2ccc(OCc3cccnc3C(F)(F)F)cc2c1C(=O)NC1CCNCC1(F)F (single isomer, unassigned) [Cpd 003 - En1]
1 to 20 µM	Cn1nc2ccc(OCc3cccnc3)cc2c1C(=O)NC1(C(N)=O)CCOC1 (single isomer, unassigned) [Cpd 168 - En1]
> 20 µM	CN(C)C(=O)C(C)(CO)NC(=O)c1c2cc(OCc3cccnc3C(F)(F)F)ccc2nn1C (single isomer, unassigned) [Cpd 193 - En2, 3-hydroxy-N,N,2-trimethyl-2-[(2-methyl-5-{[2-(trifluoromethyl)pyridin-3-yl]methoxy}-2H-indazol-3-yl)formamido]propanamide]
1 to 20 µM	Cn1nc2ccc(OCc3ccccn3)cc2c1C(=O)NC(C)(CO)CC(F)(F)F (single isomer, unassigned) [Cpd 255 - En2, 2-methyl-5-[(pyridin-2-yl)methoxy]-N-(4,4,4-trifluoro-1-hydroxy-2-methylbutan-2-yl)-2H-indazole-3-carboxamide]

The remaining lines, values behind:

SMILES	IC50
Cn1nc2ccc(OCC3(C#N)CC3)cc2c1C(=O)N[C@@H](CO)C(N)=O [Cpd 148, (2S)-2-({5-[(1-cyanocyclopropyl)methoxy]-2-methyl-2H-indazol-3-yl}formamido)-3-hydroxypropanamide]	1 to 20 µM
Cn1nccc1COc1ccc2nn(C)c(C(=O)NCc3cccc(O)n3)c2c1 [Cpd 035, N-[(6-hydroxypyridin-2-yl)methyl]-2-methyl-5-[(1-methyl-1H-pyrazol-5-yl)methoxy]-2H-indazole-3-carboxamide]	1 to 20 µM
Cn1nc2ccc(OCc3ccccn3)cc2c1C(=O)NC(CO)CC(N)=O (single isomer, unassigned) [Cpd 240 - En2, 4-hydroxy-3-({2-methyl-5-[(pyridin-2-yl)methoxy]-2H-indazol-3-yl}formamido)butanamide]	> 20 µM
COCC(C)(CO)NC(=O)c1c2cc(OCc3ccccn3)ccc2nn1C (single isomer, unassigned) [Cpd 258 - En2]	1 to 20 µM
Cn1nccc1COc1ccc2nn(C)c(C(=O)NC(C)(CO)CO)c2c1 [Cpd 009, N-(1,3-dihydroxy-2-methylpropan-2-yl)-2-methyl-5-[(1-methyl-1H-pyrazol-5-yl)methoxy]-2H-indazole-3-carboxamide]	1 to 20 µM
Cn1nccc1COc1ccc2nn(C)c(C(=O)NCC3CCC(=O)N3)c2c1 (stereo not shown) [Cpd 069, 2-methyl-5-[(1-methyl-1H-pyrazol-5-yl)methoxy]-N-[(5-oxopyrrolidin-2-yl)methyl]-2H-indazole-3-carboxamide]	> 20 µM
Cn1nc2ccc(OCc3ccccn3)cc2c1C(=O)NC(CO)C1CCOCC1 (single isomer, unassigned) [Cpd 241 - En2]	> 20 µM
Cc1ccc(COc2ccc3nn(C)c(C(=O)NC(C)(CO)C(N)=O)c3c2)nc1 (single isomer, unassigned) [Cpd 181 - En2]	1 to 20 µM
Cn1nc2ccc(OCc3ccccn3)cc2c1C(=O)NC(CO)Cc1ccccn1 (single isomer, unassigned) [Cpd 252 - En2]	> 20 µM
Cc1ncsc1COc1ccc2nn(C)c(C(=O)NC3CCNC3)c2c1 (single isomer, unassigned) [Cpd 215 - En2]	1 to 20 µM
Cc1ncsc1COc1ccc2nn(C)c(C(=O)NC3CNCCC3(F)F)c2c1 (single isomer, unassigned) [Cpd 211 - En2, N-(4,4-difluoropiperidin-3-yl)-2-methyl-5-[(4-methyl-1,3-thiazol-5-yl)methoxy]-2H-indazole-3-carboxamide]	< 1 µM
Cn1nccc1COc1ccc2nn(C)c(C(=O)NC(C)(C)CO)c2c1 [Cpd 015, N-(1-hydroxy-2-methylpropan-2-yl)-2-methyl-5-[(1-methyl-1H-pyrazol-5-yl)methoxy]-2H-indazole-3-carboxamide]	1 to 20 µM
O=C1NCCn2nc3ccc(OCc4ccccc4)cc3c21 [Cpd 257, 9-(benzyloxy)-1H,2H,3H,4H-pyrazino[1,2-b]indazol-1-one]	> 20 µM
Cn1nc2ccc(OCC3CCC3)cc2c1C(=O)NC1(CO)CCNC1=O (single isomer, unassigned) [Cpd 159 - En1]	1 to 20 µM
Cn1ccc(COc2ccc3nn(C)c(C(=O)NC(C)(CO)C(N)=O)c3c2)n1 (single isomer, unassigned) [Cpd 155 - En1]	> 20 µM
Cn1nc2ccc(OCc3ccccn3)cc2c1C(=O)NC(C)(CO)C(N)=O (single isomer, unassigned) [Cpd 162 - En2]	< 1 µM
Cn1nc2ccc(OCC3CCC3)cc2c1C(=O)NC(C)(CO)C(N)=O (single isomer, unassigned) [Cpd 173 - En1]	< 1 µM
Cc1ncsc1COc1ccc2nn(C)c(C(=O)Nc3ccn(C)n3)c2c1 [Cpd 018, 2-methyl-5-[(4-methyl-1,3-thiazol-5-yl)methoxy]-N-(1-methyl-1H-pyrazol-3-yl)-2H-indazole-3-carboxamide]	1 to 20 µM
Cn1nc2ccc(OCc3ccccn3)cc2c1C(=O)NC(C)(CO)CO [Cpd 127, N-(1,3-dihydroxy-2-methylpropan-2-yl)-2-methyl-5-[(pyridin-2-yl)methoxy]-2H-indazole-3-carboxamide]	< 1 µM
Cn1nc2ccc(OCC3CC3)cc2c1C(=O)NC1(CO)CCNC1=O (single isomer, unassigned) [Cpd 161 - En1]	< 1 µM
Cn1nc2ccc(OCc3ccccn3)cc2c1C(=O)NC(CO)c1nccn1C1CC1 (single isomer, unassigned) [Cpd 238 - En2]	1 to 20 µM
O=C1NCCn2nc3ccc(OCc4ccccc4F)cc3c21 [Cpd 256, 9-[(2-fluorophenyl)methoxy]-1H,2H,3H,4H-pyrazino[1,2-b]indazol-1-one]	> 20 µM
Cn1nc2ccc(OCc3ccccn3)cc2c1C(=O)NC(CO)(CCF)C(N)=O (stereo not shown) [Cpd 234, 4-fluoro-2-(hydroxymethyl)-2-({2-methyl-5-[(pyridin-2-yl)methoxy]-2H-indazol-3-yl}formamido)butanamide]	< 1 µM
C[C@H](NC(=O)c1c2cc(OCc3ccccn3)ccc2nn1C)C(N)=O [Cpd 082, (2S)-2-({2-methyl-5-[(pyridin-2-yl)methoxy]-2H-indazol-3-yl}formamido)propanamide]	1 to 20 µM
Cn1nc2ccc(OCc3ccccn3)cc2c1C(=O)N[C@H]1CCN(CCO)C1=O [Cpd 153, N-[(3S)-1-(2-hydroxyethyl)-2-oxopyrrolidin-3-yl]-2-methyl-5-[(pyridin-2-yl)methoxy]-2H-indazole-3-carboxamide]	> 20 µM
Cn1ccc(NC(=O)c2c3cc(OCc4ccnn4C)ccc3nn2C)n1 [Cpd 006, 2-methyl-N-(1-methyl-1H-pyrazol-3-yl)-5-[(1-methyl-1H-pyrazol-5-yl)methoxy]-2H-indazole-3-carboxamide]	> 20 µM

— patent publication US20250376461A1, “INDAZOLE DERIVATIVES FOR TREATING TRPM3-MEDIATED DISORDERS” (Katholieke Universiteit Leuven, priority 2022, published 2025)
